Results as given in patent US7939568B2, “Use of a composition comprising vitamin K1 oxide or a derivative thereof for the treatment and/or the prevention of mammal dermatological lesions” (Auriga International S.A., priority 2003, dated 2011).

How the values were obtained:
[1] = Transformation in presence of light; format: physicochemical
Description: The improved stability of vitamin K1 oxide compared to vitamin K1, reduces also unexpectedly the side effects of a cosmetic composition. […] Such transformation of vitamin K1 oxide is not observed in the presence of light and these side effects are not present when the cosmetic composition according to the invention is applied upon mammal skin.

[2] = Formation of chromophoric group on mixing with retinol; format: physicochemical; settings: mixing with retinol (or retinol palmitate)

Row | Compound | transformation into Menadione (vitamin K3) and 1.4.Naphtoquinone [1] | formation of chromophoric group [2]
1 | CC1=C(C/C=C(\C)CCC[C@H](C)CCC[C@H](C)CCCC(C)C)C(=O)c2ccccc2C1=O [vitamin K1, 2-methyl 3-phytyl-1,4-naphtoquinone] | transformed into Menadione (vitamin K3) and 1.4.Naphtoquinone | 
2 | CC(=CCC12OC1(C)C(=O)c1ccccc1C2=O)CCCC(C)CCCC(C)CCCC(C)C (stereo not drawn) [vitamin K1 oxide] | not observed | does not allow the formation of chromophoric group
